In PubChem BioAssay AID256 (DTP/NCI, 2004):
Several values for one entry are separate records, joined by “and”; a condition that tells them apart may be missing. Equal values may be shown once. Inconclusive results and toxic doses are left out.

System: CD2F1 mice, L1210 leukemia ip, survival T/C
Assay: NCI In Vivo Anticancer Drug Screen. Data for tumor model L1210 Leukemia (intraperitoneal) in CD2F1 (CDF1) mice
Settings: higher = longer survival
Procedure, shortened: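 Transplantable tumor in mice; compound-treated vs vehicle-treated groups. Read-out = treated/control ratio of the measured endpoint.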

[1] = endpoint: mean survival time, dose: 75.0 mg/kg/injection, schedule: Q01DX001 (ip), vehicle: saline
[2] = endpoint: mean survival time, dose: 100.0 mg/kg/injection, schedule: Q01DX009 (ip), vehicle: saline with Tween-80
[3] = endpoint: mean survival time, dose: 200.0 mg/kg/injection, schedule: Q01DX009 (ip), vehicle: saline with Tween-80
[4] = endpoint: mean survival time, dose: 100.0 mg/kg/injection, schedule: Q01DX009 (ip), vehicle: saline
[5] = endpoint: mean survival time, dose: 200.0 mg/kg/injection, schedule: Q01DX009 (ip), vehicle: saline
[6] = endpoint: mean survival time, dose: 100.0 mg/kg/injection, schedule: Q04DX002 (ip), vehicle: saline with Tween-80

CNC[C@@H](O)c1ccc(O)c(O)c1
T/C (endpoint: mean survival time, dose: 1.0 mg/kg/injection, schedule: Q01DX001 (ip), vehicle: saline): 97 % of control | T/C (endpoint: mean survival time, dose: 2.0 mg/kg/injection, schedule: Q01DX001 (ip), vehicle: saline): 100 % of control | T/C (endpoint: mean survival time, dose: 2.5 mg/kg/injection, schedule: Q01DX009 (ip), vehicle: saline): 104 % of control | T/C (endpoint: mean survival time, dose: 4.0 mg/kg/injection, schedule: Q01DX001 (ip), vehicle: saline): 107 % of control | T/C (endpoint: mean survival time, dose: 5.0 mg/kg/injection, schedule: Q01DX009 (ip), vehicle: saline): 104 % of control | T/C (endpoint: mean survival time, dose: 8.0 mg/kg/injection, schedule: Q01DX001 (ip), vehicle: saline): 103 % of control

O=NN(CCCl)C(=O)NC1[C@H](O)CCC[C@@H]1O (some centres undefined)
T/C (endpoint: median survival time, dose: 0.63 mg/kg/injection, schedule: Q01DX009 (ip), vehicle: saline): 167 % of control | T/C (endpoint: median survival time, dose: 1.25 mg/kg/injection, schedule: Q01DX009 (ip), vehicle: saline): 229 % of control and 108 % of control | T/C (endpoint: median survival time, dose: 2.5 mg/kg/injection, schedule: Q01DX009 (ip), vehicle: saline): 348 % of control and 365 % of control | T/C (endpoint: median survival time, dose: 5.0 mg/kg/injection, schedule: Q01DX009 (ip), vehicle: saline): 348 % of control and 365 % of control | T/C (endpoint: median survival time, dose: 10.0 mg/kg/injection, schedule: Q01DX009 (ip), vehicle: saline): 195 % of control and 218 % of control | T/C (endpoint: median survival time, dose: 20.0 mg/kg/injection, schedule: Q01DX009 (ip), vehicle: saline): 93 % of control and 101 % of control

COP(=O)(O)OCC1OC(n2cnc3c(N)ncnc32)C(O)C1O (centres undefined)
T/C (endpoint: mean survival time, dose: 12.5 mg/kg/injection, schedule: Q01DX005 (ip), vehicle: distilled water + Tween-80): 96 % of control | T/C (endpoint: mean survival time, dose: 25.0 mg/kg/injection, schedule: Q01DX005 (ip), vehicle: distilled water + Tween-80): 102 % of control | T/C (endpoint: mean survival time, dose: 50.0 mg/kg/injection, schedule: Q01DX005 (ip), vehicle: distilled water + Tween-80): 106 % of control | T/C (endpoint: mean survival time, dose: 100.0 mg/kg/injection, schedule: Q01DX005 (ip), vehicle: distilled water + Tween-80): 100 % of control | T/C (endpoint: mean survival time, dose: 200.0 mg/kg/injection, schedule: Q01DX005 (ip), vehicle: distilled water + Tween-80): 106 % of control

CN=NNc1ccccc1
T/C [1]: 117 % of control | T/C (endpoint: mean survival time, dose: 75.0 mg/kg/injection, schedule: Q04DX003 (ip), vehicle: saline with Tween-80): 122 % of control | T/C (endpoint: mean survival time, dose: 100.0 mg/kg/injection, schedule: Q04DX003 (ip), vehicle: saline with Tween-80): 119 % of control | T/C (endpoint: mean survival time, dose: 150.0 mg/kg/injection, schedule: Q04DX003 (ip), vehicle: saline with Tween-80): 153 % of control | T/C (endpoint: mean survival time, dose: 225.0 mg/kg/injection, schedule: Q04DX003 (ip), vehicle: saline with Tween-80): 86 % of control

O=C(Nc1ccccc1)OCC1CC2CCC1C2 (centres undefined)
T/C [2]: 87 % of control | T/C [3]: 93 % of control | T/C (endpoint: mean survival time, dose: 400.0 mg/kg/injection, schedule: Q01DX009 (ip), vehicle: saline with Tween-80): 95 % of control

C/C=C(\C)c1cc(=O)c2c(C)cc3c(c2o1)C(=O)c1c(O)c(C2CC(C)(N(C)C)C(O)C(C)O2)cc(C2CC(N(C)C)C(O)C(C)O2)c1C3=O (centres undefined)
T/C (endpoint: mean survival time, dose: 0.38 mg/kg/injection, schedule: Q01DX009 (ip), vehicle: saline): 102 % of control | T/C (endpoint: mean survival time, dose: 0.62 mg/kg/injection, schedule: Q01DX009 (ip), vehicle: saline): 115 % of control | T/C (endpoint: mean survival time, dose: 0.63 mg/kg/injection, schedule: Q01DX009 (ip), vehicle: saline): 116 % of control | T/C (endpoint: mean survival time, dose: 0.75 mg/kg/injection, schedule: Q01DX009 (ip), vehicle: saline): 109 % of control | T/C (endpoint: mean survival time, dose: 1.25 mg/kg/injection, schedule: Q01DX009 (ip), vehicle: saline): 113 % of control and 105 % of control | T/C (endpoint: mean survival time, dose: 1.5 mg/kg/injection, schedule: Q01DX009 (ip), vehicle: saline): 113 % of control | T/C (endpoint: mean survival time, dose: 3.0 mg/kg/injection, schedule: Q01DX009 (ip), vehicle: saline): 107 % of control | T/C (endpoint: mean survival time, dose: 3.13 mg/kg/injection, schedule: Q01DX009 (ip), vehicle: saline with Tween-80): 98 % of control | T/C (endpoint: mean survival time, dose: 31.25 micrograms/kg/injection, schedule: Q01DX009 (ip), vehicle: saline): 103 % of control | T/C (endpoint: mean survival time, dose: 62.5 micrograms/kg/injection, schedule: Q01DX009 (ip), vehicle: saline): 115 % of control | T/C (endpoint: mean survival time, dose: 125.0 micrograms/kg/injection, schedule: Q01DX009 (ip), vehicle: saline): 111 % of control | T/C (endpoint: mean survival time, dose: 156.25 micrograms/kg/injection, schedule: Q01DX009 (ip), vehicle: saline): 119 % of control | T/C (endpoint: mean survival time, dose: 250.0 micrograms/kg/injection, schedule: Q01DX009 (ip), vehicle: saline): 115 % of control | T/C (endpoint: mean survival time, dose: 500.0 micrograms/kg/injection, schedule: Q01DX009 (ip), vehicle: saline): 115 % of control | T/C (endpoint: mean survival time, dose: 625.0 micrograms/kg/injection, schedule: Q01DX009 (ip), vehicle: saline): 104 % of control | T/C (endpoint: mean survival time, dose: 1000.0 micrograms/kg/injection, schedule: Q01DX009 (ip), vehicle: saline): 105 % of control | T/C (endpoint: mean survival time, dose: 1250.0 micrograms/kg/injection, schedule: Q01DX009 (ip), vehicle: saline): 120 % of control | T/C (endpoint: mean survival time, dose: 2500.0 micrograms/kg/injection, schedule: Q01DX009 (ip), vehicle: saline): 95 % of control | T/C (endpoint: median survival time, dose: 3.13 mg/kg/injection, schedule: Q01DX001 (ip), vehicle: saline with Tween-80): 111 % of control | T/C (endpoint: median survival time, dose: 6.25 mg/kg/injection, schedule: Q01DX001 (ip), vehicle: saline with Tween-80): 111 % of control | T/C (endpoint: median survival time, dose: 12.5 mg/kg/injection, schedule: Q01DX001 (ip), vehicle: saline with Tween-80): 122 % of control | T/C (endpoint: median survival time, dose: 25.0 mg/kg/injection, schedule: Q01DX001 (ip), vehicle: saline with Tween-80): 111 % of control

Nc1ncnc2c1ncn2C(C=O)OC(C=O)CO (centres undefined)
T/C (endpoint: mean survival time, dose: 35.0 mg/kg/injection, schedule: Q01DX001 (ip), vehicle: saline): 117 % of control

Cc1ccc(N=C(N)NC#N)cc1C
T/C [2]: 95 % of control | T/C [3]: 97 % of control

CC(=O)O.CC(=O)O.[Co].[NH2-].[NH2-].[NH2-].[NH2-]
T/C (endpoint: mean survival time, dose: 6.25 mg/kg/injection, schedule: Q04DX002 (ip), vehicle: saline with Tween-80): 93 % of control | T/C (endpoint: mean survival time, dose: 12.5 mg/kg/injection, schedule: Q04DX002 (ip), vehicle: saline with Tween-80): 87 % of control

Cc1c(O)c2c(c(O)c1Cc1ccc(C#N)cc1)C(=O)c1ccccc1C2=O
T/C (endpoint: mean survival time, dose: 12.5 mg/kg/injection, schedule: Q01DX009 (ip), vehicle: Klucel (hydroxypropylcellulose) (HPC)): 91 % of control | T/C (endpoint: mean survival time, dose: 25.0 mg/kg/injection, schedule: Q01DX009 (ip), vehicle: Klucel (hydroxypropylcellulose) (HPC)): 96 % of control | T/C (endpoint: mean survival time, dose: 100.0 mg/kg/injection, schedule: Q01DX009 (ip), vehicle: Klucel (hydroxypropylcellulose) (HPC)): 90 % of control | T/C (endpoint: mean survival time, dose: 200.0 mg/kg/injection, schedule: Q01DX009 (ip), vehicle: Klucel (hydroxypropylcellulose) (HPC)): 94 % of control

O=C1c2ccccc2C(=O)N1c1ccc(Cl)cc1
T/C (endpoint: mean survival time, dose: 100.0 mg/kg/injection, schedule: Q01DX001 (ip), vehicle: Klucel (hydroxypropylcellulose) (HPC)): 92 % of control | T/C (endpoint: mean survival time, dose: 200.0 mg/kg/injection, schedule: Q01DX001 (ip), vehicle: Klucel (hydroxypropylcellulose) (HPC)): 96 % of control | T/C (endpoint: mean survival time, dose: 400.0 mg/kg/injection, schedule: Q01DX001 (ip), vehicle: Klucel (hydroxypropylcellulose) (HPC)): 107 % of control

CC1(C)N=C(N)N=C(N)N1c1cccc(C#N)c1
T/C (endpoint: mean survival time, dose: 17.0 mg/kg/injection, schedule: Q01DX009 (ip), vehicle: saline): 112 % of control | T/C (endpoint: mean survival time, dose: 25.0 mg/kg/injection, schedule: Q01DX009 (ip), vehicle: saline): 117 % of control | T/C (endpoint: mean survival time, dose: 37.5 mg/kg/injection, schedule: Q01DX009 (ip), vehicle: saline): 120 % of control | T/C [1]: 104 % of control | T/C (endpoint: mean survival time, dose: 150.0 mg/kg/injection, schedule: Q01DX001 (ip), vehicle: saline): 113 % of control

OC1CC2C=CC1CC2 (centres undefined)
T/C [4]: 97 % of control | T/C [5]: 94 % of control | T/C (endpoint: mean survival time, dose: 400.0 mg/kg/injection, schedule: Q01DX009 (ip), vehicle: saline): 100 % of control

CC(C)(C)[N+](=O)[O-]
T/C (endpoint: mean survival time, dose: 50.0 mg/kg/injection, schedule: Q01DX009 (ip), vehicle: saline): 93 % of control | T/C [4]: 93 % of control | T/C [5]: 93 % of control

Cc1cc(C)c2c(C#N)cn(-c3ccccc3)c2n1
T/C (endpoint: mean survival time, dose: 100.0 mg/kg/injection, schedule: Q01DX001 (ip), vehicle: saline): 104 % of control | T/C (endpoint: mean survival time, dose: 200.0 mg/kg/injection, schedule: Q01DX001 (ip), vehicle: saline): 100 % of control | T/C (endpoint: mean survival time, dose: 400.0 mg/kg/injection, schedule: Q01DX001 (ip), vehicle: saline): 100 % of control

N=C(N)SCc1c(Cl)c(Cl)c(Cl)c(Cl)c1Cl
T/C (endpoint: mean survival time, dose: 25.0 mg/kg/injection, schedule: Q04DX002 (ip), vehicle: saline with Tween-80): 103 % of control | T/C (endpoint: mean survival time, dose: 50.0 mg/kg/injection, schedule: Q04DX002 (ip), vehicle: saline with Tween-80): 98 % of control | T/C [6]: 98 % of control

ClCCCC1(CCCCl)OCCO1
T/C [6]: 101 % of control | T/C (endpoint: mean survival time, dose: 200.0 mg/kg/injection, schedule: Q04DX002 (ip), vehicle: saline with Tween-80): 97 % of control | T/C (endpoint: mean survival time, dose: 400.0 mg/kg/injection, schedule: Q04DX002 (ip), vehicle: saline with Tween-80): 104 % of control
